{"source": "EPA's ToxRefDB 2", "key": {"rat [1]": {"test_system": "rat", "conditions": "Subchronic oral toxicity in rodents, fischer, Feed, dose end: 13 week, group: systemic"}, "mouse [2]": {"test_system": "mouse", "conditions": "Multigenerational reproductive toxicity study, cd1, Oral, Water, dose end: 2 generation"}, "mouse [3]": {"test_system": "mouse", "conditions": "Multigenerational reproductive toxicity study, cd1, Oral, Water, dose end: 2 generation", "remark": "listed apart in the source"}, "rabbit": {"test_system": "rabbit", "conditions": "Prenatal developmental toxicity study; new zealand white; Oral; Gavage/Intubation; dose end: 19 GD; group: maternal; reproductive / reproductive performance / pregnancy / pregnancy + reproductive / reproductive performance / premature delivery / premature …"}, "rat [4]": {"test_system": "rat", "conditions": "Prenatal developmental toxicity study, sprague dawley, Oral, Gavage/Intubation, dose end: 20 GD"}, "mouse [5]": {"test_system": "mouse", "conditions": "Subchronic oral toxicity in rodents, b6c3f1, Feed, dose end: 13 week, group: systemic, systemic / pathology microscopic / liver / degeneration + systemic / pathology microscopic / liver / hyalinization"}, "rat [6]": {"test_system": "rat", "conditions": "Prenatal developmental toxicity study, sprague dawley, Oral, Gavage/Intubation, dose end: 15 GD"}, "mouse [7]": {"test_system": "mouse", "conditions": "Combined chronic toxicity/carcinogenicity, b6c3f1, Oral, Feed, dose end: 2 year, group: systemic"}, "[8]": {"conditions": "systemic / clinical chemistry / creatinine / creatinine + systemic / clinical chemistry / urea nitrogen / urea nitrogen + systemic / in life…"}, "[9]": {"conditions": "systemic / clinical chemistry / urea nitrogen / urea nitrogen"}, "[10]": {"conditions": "group: offspring, developmental / developmental malformation / eye / absent + developmental / developmental malformation / mouth / jaw / cleft lip + …"}, "[11]": {"conditions": "group: offspring, systemic / in life observation / body weight / offspring (pup) weight"}, "[12]": {"conditions": "group: parental, systemic / in life observation / water consumption / water consumption + systemic / organ weight / liver / absolute + systemic / in life …"}, "[13]": {"conditions": "group: parental, systemic / pathology gross / sperm measure / sperm count"}, "[14]": {"conditions": "group: reproductive, reproductive / offspring survival early / live fetuses / live fetuses"}, "[15]": {"conditions": "group: reproductive, reproductive / reproductive performance / fertility / fertility + reproductive / offspring survival early / live fetuses / live fetuses"}, "[16]": {"conditions": "group: offspring, developmental / developmental malformation / bone / absent + developmental / developmental malformation / bone / fused + developmental / …"}, "[17]": {"conditions": "group: parental, systemic / in life observation / mortality / mortality"}, "[18]": {"conditions": "group: reproductive, reproductive / reproductive performance / fertility / fertility + reproductive / offspring survival early / litter size / litter size"}, "[19]": {"conditions": "group: developmental, developmental / developmental malformation / bone / absent + developmental / developmental malformation / bone / double-tipped + …"}, "[20]": {"conditions": "group: maternal, reproductive / reproductive performance / gestational length / gestational length + systemic / pathology microscopic / kidney / dilatation…"}, "[21]": {"conditions": "group: developmental, developmental / developmental malformation / bone / absent + developmental / developmental malformation / bone / delayed ossification + …"}, "[22]": {"conditions": "group: maternal, systemic / in life observation / body weight / body weight + systemic / in life observation / body weight / body weight gain + reproductive…"}, "[23]": {"conditions": "systemic / pathology microscopic / liver / degeneration"}, "[24]": {"conditions": "systemic / pathology microscopic / liver / degeneration + systemic / pathology microscopic / lung / hyperplasia + systemic / pathology …"}}}
{"smiles": "OCCO", "note": "[Ethylene glycol]", "values": [{"measurement": "LOAEL", "setting": "rat [1]; [8]", "value": 1250, "unit": "mg/kg/day"}, {"measurement": "NOAEL", "setting": "rat [1]; [8]", "value": 625, "unit": "mg/kg/day"}, {"measurement": "LEL", "setting": "rat [1]; [9]", "value": 160, "unit": "mg/kg/day"}, {"measurement": "NEL", "setting": "rat [1]; [9]", "value": "< 160", "unit": "mg/kg/day"}, {"measurement": "LOAEL", "setting": "mouse [2]; [10]", "value": "> 2000", "unit": "mg/kg/day"}, {"measurement": "NOAEL", "setting": "mouse [2]; [10]", "value": "≥ 2000", "unit": "mg/kg/day"}, {"measurement": "LEL", "setting": "mouse [2]; [11]", "value": 667, "unit": "mg/kg/day"}, {"measurement": "NEL", "setting": "mouse [2]; [11]", "value": "< 667", "unit": "mg/kg/day"}, {"measurement": "LOAEL", "setting": "mouse [2]; [12]", "value": "> 2000", "unit": "mg/kg/day"}, {"measurement": "NOAEL", "setting": "mouse [2]; [12]", "value": "≥ 2000", "unit": "mg/kg/day"}, {"measurement": "LEL", "setting": "mouse [2]; [13]", "value": 667, "unit": "mg/kg/day"}, {"measurement": "NEL", "setting": "mouse [2]; [13]", "value": "< 667", "unit": "mg/kg/day"}, {"measurement": "LEL", "setting": "mouse [2]; [14]", "value": 1330, "unit": "mg/kg/day"}, {"measurement": "NEL", "setting": "mouse [2]; [14]", "value": 667, "unit": "mg/kg/day"}, {"measurement": "LOAEL", "setting": "mouse [2]; [15]", "value": "> 2000", "unit": "mg/kg/day"}, {"measurement": "NOAEL", "setting": "mouse [2]; [15]", "value": "≥ 2000", "unit": "mg/kg/day"}, {"measurement": "LEL", "setting": "mouse [3]; [16]", "value": 1330, "unit": "mg/kg/day"}, {"measurement": "LOAEL", "setting": "mouse [3]; [16]", "value": "> 1330", "unit": "mg/kg/day"}, {"measurement": "NEL", "setting": "mouse [3]; [16]", "value": 667, "unit": "mg/kg/day"}, {"measurement": "NOAEL", "setting": "mouse [3]; [16]", "value": "≥ 1330", "unit": "mg/kg/day"}, {"measurement": "LEL", "setting": "mouse [3]; [17]", "value": 667, "unit": "mg/kg/day"}, {"measurement": "LOAEL", "setting": "mouse [3]; [17]", "value": "> 1330", "unit": "mg/kg/day"}, {"measurement": "NEL", "setting": "mouse [3]; [17]", "value": 333, "unit": "mg/kg/day"}, {"measurement": "NOAEL", "setting": "mouse [3]; [17]", "value": "≥ 1330", "unit": "mg/kg/day"}, {"measurement": "NEL", "setting": "mouse [3]; group: reproductive, reproductive / reproductive performance / fertility / fertility", "value": 667, "unit": "mg/kg/day"}, {"measurement": "LEL", "setting": "mouse [3]; [18]", "value": 1330, "unit": "mg/kg/day"}, {"measurement": "LOAEL", "setting": "mouse [3]; [18]", "value": "> 1330", "unit": "mg/kg/day"}, {"measurement": "NOAEL", "setting": "mouse [3]; [18]", "value": "≥ 1330", "unit": "mg/kg/day"}, {"measurement": "LEL", "setting": "rabbit", "value": 2000, "unit": "mg/kg/day"}, {"measurement": "LOAEL", "setting": "rabbit", "value": "> 2000", "unit": "mg/kg/day"}, {"measurement": "NEL", "setting": "rabbit", "value": 1000, "unit": "mg/kg/day"}, {"measurement": "NOAEL", "setting": "rabbit", "value": "≥ 2000", "unit": "mg/kg/day"}, {"measurement": "LOAEL", "setting": "rat [4]; [19]", "value": "> 2250", "unit": "mg/kg/day"}, {"measurement": "NEL", "setting": "rat [4]; [19]", "value": 250, "unit": "mg/kg/day"}, {"measurement": "NOAEL", "setting": "rat [4]; [19]", "value": "≥ 2250", "unit": "mg/kg/day"}, {"measurement": "LEL", "setting": "rat [4]; group: developmental, developmental / developmental malformation / kidney / size + systemic / in life observation / body weight / fetal weight", "value": 1250, "unit": "mg/kg/day"}, {"measurement": "LEL", "setting": "rat [4]; [20]", "value": 1250, "unit": "mg/kg/day"}, {"measurement": "LOAEL", "setting": "rat [4]; [20]", "value": "> 2250", "unit": "mg/kg/day"}, {"measurement": "NEL", "setting": "rat [4]; [20]", "value": 250, "unit": "mg/kg/day"}, {"measurement": "NOAEL", "setting": "rat [4]; [20]", "value": "≥ 2250", "unit": "mg/kg/day"}, {"measurement": "LEL", "setting": "mouse [5]", "value": 3750, "unit": "mg/kg/day"}, {"measurement": "LOAEL", "setting": "mouse [5]", "value": "> 7500", "unit": "mg/kg/day"}, {"measurement": "NEL", "setting": "mouse [5]", "value": 1880, "unit": "mg/kg/day"}, {"measurement": "NOAEL", "setting": "mouse [5]", "value": "≥ 7500", "unit": "mg/kg/day"}, {"measurement": "LEL", "setting": "rat [6]; [21]", "value": 2500, "unit": "mg/kg/day"}, {"measurement": "LOAEL", "setting": "rat [6]; [21]", "value": "> 2500", "unit": "mg/kg/day"}, {"measurement": "NEL", "setting": "rat [6]; [21]", "value": "< 2500", "unit": "mg/kg/day"}, {"measurement": "NOAEL", "setting": "rat [6]; [21]", "value": "≥ 2500", "unit": "mg/kg/day"}, {"measurement": "LEL", "setting": "rat [6]; [22]", "value": 2500, "unit": "mg/kg/day"}, {"measurement": "LOAEL", "setting": "rat [6]; [22]", "value": "> 2500", "unit": "mg/kg/day"}, {"measurement": "NEL", "setting": "rat [6]; [22]", "value": "< 2500", "unit": "mg/kg/day"}, {"measurement": "NOAEL", "setting": "rat [6]; [22]", "value": "≥ 2500", "unit": "mg/kg/day"}, {"measurement": "LEL", "setting": "mouse [7]; [23]", "value": 1500, "unit": "mg/kg/day"}, {"measurement": "NEL", "setting": "mouse [7]; [23]", "value": "< 1500", "unit": "mg/kg/day"}, {"measurement": "LOAEL", "setting": "mouse [7]; [24]", "value": "> 12000", "unit": "mg/kg/day"}, {"measurement": "NOAEL", "setting": "mouse [7]; [24]", "value": "≥ 12000", "unit": "mg/kg/day"}]}
